Laboratory results from ChEMBL document CHEMBL3994585, “Synthesis of α-santonin derivatives for diminutive effect on T and B-cell proliferation and their structure activity relationships” (Eur J Med Chem, 2017).

Assays:
[1] = test system: T-cell; assay: Immunosuppressive activity in Balb/c mouse T cells assessed as ConA-induced cell proliferation at 100 uM after 48 hrs by MTT assay relative to control; type: functional
[2] = test system: T-cell; assay: Immunosuppressive activity in Balb/c mouse T cells assessed as ConA-induced cell proliferation at 10 uM after 48 hrs by MTT assay relative to control; type: functional
[3] = test system: T-cell; assay: Immunosuppressive activity in Balb/c mouse T cells assessed as ConA-induced cell proliferation at 1 uM after 48 hrs by MTT assay relative to control; type: functional
[4] = test system: B-cell; assay: Immunosuppressive activity in Balb/c mouse B cells assessed as LPS-induced cell proliferation at 100 uM after 48 hrs by MTT assay relative to control; type: functional
[5] = test system: B-cell; assay: Immunosuppressive activity in Balb/c mouse B cells assessed as LPS-induced cell proliferation at 10 uM after 48 hrs by MTT assay relative to control; type: functional
[6] = test system: B-cell; assay: Immunosuppressive activity in Balb/c mouse B cells assessed as LPS-induced cell proliferation at 1 uM after 48 hrs by MTT assay relative to control; type: functional
[7] = test system: T-cell; assay: Cytotoxicity against Balb/c mouse T cells assessed as reduction in cell proliferation at 100 uM after 48 hrs by MTT assay; type: cell-based
[8] = test system: T-cell; assay: Cytotoxicity against Balb/c mouse T cells assessed as reduction in cell proliferation at 10 uM after 48 hrs by MTT assay; type: cell-based
[9] = test system: T-cell; assay: Cytotoxicity against Balb/c mouse T cells assessed as reduction in cell proliferation at 1 uM after 48 hrs by MTT assay; type: cell-based
[10] = test system: B-cell; assay: Cytotoxicity against Balb/c mouse B cells assessed as reduction in cell proliferation at 100 uM after 48 hrs by MTT assay; type: cell-based
[11] = test system: B-cell; assay: Cytotoxicity against Balb/c mouse B cells assessed as reduction in cell proliferation at 10 uM after 48 hrs by MTT assay; type: cell-based
[12] = test system: B-cell; assay: Cytotoxicity against Balb/c mouse B cells assessed as reduction in cell proliferation at 1 uM after 48 hrs by MTT assay; type: cell-based
[13] = target: Tumor necrosis factor (Homo sapiens) (UniProt P01375); assay: Inhibition of TNFalpha (unknown origin) at 10 uM relative to control
Tumor necrosis factor (Homo sapiens), sequence (P01375 whole entry): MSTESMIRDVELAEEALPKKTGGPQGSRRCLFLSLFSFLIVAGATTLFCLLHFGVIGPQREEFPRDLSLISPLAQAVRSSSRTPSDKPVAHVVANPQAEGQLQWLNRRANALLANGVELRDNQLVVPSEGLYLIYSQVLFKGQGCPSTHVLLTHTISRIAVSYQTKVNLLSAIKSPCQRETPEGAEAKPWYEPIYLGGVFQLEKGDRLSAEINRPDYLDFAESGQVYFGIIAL

[14] = target: Tumor necrosis factor (Homo sapiens) (UniProt P01375); assay: Inhibition of TNFalpha (unknown origin) at 5 uM relative to control
[15] = target: Tumor necrosis factor (Homo sapiens) (UniProt P01375); assay: Inhibition of TNFalpha (unknown origin) at 1 uM relative to control
[16] = test system: T-cell; assay: Immunostimulant activity in Balb/c mouse T cells assessed as ConA-induced cell proliferation at 100 uM after 48 hrs by MTT assay relative to control; type: ADME, cell-based
[17] = test system: T-cell; assay: Immunostimulant activity in Balb/c mouse T cells assessed as ConA-induced cell proliferation at 1 uM after 48 hrs by MTT assay relative to control; type: ADME, cell-based
[18] = test system: B-cell; assay: Immunostimulant activity in Balb/c mouse B cells assessed as LPS-induced cell proliferation at 100 uM after 48 hrs by MTT assay relative to control; type: ADME, cell-based
[19] = test system: B-cell; assay: Immunostimulant activity in Balb/c mouse B cells assessed as LPS-induced cell proliferation at 10 uM after 48 hrs by MTT assay relative to control; type: ADME, cell-based
[20] = test system: B-cell; assay: Immunostimulant activity in Balb/c mouse B cells assessed as LPS-induced cell proliferation at 1 uM after 48 hrs by MTT assay relative to control; type: ADME, cell-based
[21] = test system: T-cell; assay: Immunostimulant activity in Balb/c mouse T cells assessed as ConA-induced cell proliferation at 10 uM after 48 hrs by MTT assay relative to control; type: ADME, cell-based
[22] = test system: B-cell; assay: Effect on LPS-induced Balb/c mouse B cell proliferation at 100 uM after 48 hrs by MTT assay relative to control; type: functional
[23] = test system: T-cell; assay: Effect on ConA-induced Balb/c mouse T cell proliferation at 10 uM after 48 hrs by MTT assay relative to control; type: functional
[24] = target: Tumor necrosis factor (Homo sapiens) (UniProt P01375); assay: Inhibition of TNFalpha (unknown origin) at 10 uM relative to dexamethasone

Row | SMILES | Activity [1] [%] | Activity [2] [%] | Activity [3] [%] | Activity [4] [%] | Activity [5] [%] | Activity [6] [%] | Activity [7] | Activity [8] | Activity [9] | Activity [10] | Activity [11] | Activity [12] | inhibition [13] [%] | inhibition [14] [%] | inhibition [15] | Activity [16] [%] | Activity [17] [%] | Activity [18] [%] | Activity [19] [%] | Activity [20] [%] | other results
1 | Cc1cc(O)c(C)c2c1CC[C@@H]([C@@H](C)C(=O)Nc1ccc(CC#N)cc1)C2 | -7.35 | -30.14 | -36.02 | -46.7 | -39.56 | -42.3 | Toxic | Toxic | Toxic | Toxic | Toxic | Toxic | 17.1 | 4.5 | Below limit of detection |  |  |  |  |  | 
2 | COc1cc(C)c2ccc([C@@H](C)C(=O)O)cc2c1C |  | -25 |  |  |  |  | Non-Toxic | Toxic | Toxic | Non-Toxic | Toxic | Toxic |  |  |  | 13.07 | 9.52 | 4.76 | 13.33 | 86.66 | 
3 | CC(=O)OCC(C)C1CCc2c(C)cc(OC(C)=O)c(C)c2C1O (stereo not given) |  |  |  |  |  |  | Non-Toxic | Toxic | Toxic | Non-Toxic | Toxic | Toxic |  |  |  | 18.55 | 37.11 | 5.3 | 1.76 | 2.65 | Activity [21]: 17.52%
4 | Cc1cc(O)c(C)c2c1CC[C@@H]([C@@H](C)C(=O)O)C2 |  |  |  |  | -1.76 |  | Toxic | Toxic | Toxic | Toxic | Toxic | Toxic |  |  |  | 1.03 | 4.12 | 20.35 |  | 15.92 | Activity [21]: 3.09%
5 | Cc1c(O)c([N+](=O)[O-])c(C)c2c1[C@@H]1OC(=O)[C@@H](C)[C@@H]1CC2 |  | -1.03 |  |  | -30.08 | -10.61 | Toxic | Toxic | Toxic | Toxic | Toxic | Toxic |  |  |  | 36.08 | 13.4 |  |  |  | Activity [22]: 0%
6 | Cc1cc(OCc2cnnn2/C=C/c2ccccc2)c(C)c2c1CC[C@H]1[C@H](C)C(=O)O[C@@H]21 | -95.12 | -95.12 | -95.12 |  | -7.69 |  |  |  |  |  |  |  |  |  |  |  |  | 48.71 |  | 36.75 | 
7 | CC(=O)OC1=C(C)C2=C3OC(=O)C(C)=C3CC[C@@]2(C)CC1 | -34.55 | -38.23 | -30.88 | -45.6 | -42.3 | -42.3 | Toxic | Toxic | Toxic | Toxic | Toxic | Toxic | 44.9 | 24.1 | 3.03% |  |  |  |  |  | 
8 | CCOC(=O)[C@H](C)C1=Cc2c(C)c(O)cc(C)c2CC1 |  |  |  |  |  | -1.76 | Toxic | Toxic | Toxic | Toxic | Toxic | Toxic |  |  |  | 22.68 | 11.34 | 14.15 | 23 |  | Activity [23]: 0%
9 | C[C@@H]1C[C@H]2[C@@H]3CCC4=CC(=O)C=C[C@]4(C)[C@@]3(F)[C@@H](O)C[C@]2(C)[C@@]1(O)C(=O)CO |  |  |  |  |  |  |  |  |  |  |  |  |  |  | 49.9% |  |  |  |  |  | 
10 | CC(=O)Oc1cc(C)c2c(c1C)C1OC(OC(C)=O)C(C)C1CC2 (stereo not given) | -43.38 | -26.47 | -38.23 | -45.05 | -28.02 | -50 | Toxic | Toxic | Toxic | Toxic | Toxic | Toxic | 26 | 9.9 | 0.34% |  |  |  |  |  | inhibition [24]: 50%
11 | COC(=O)[C@H](C)C1=Cc2c(C)c(OC)cc(C)c2CC1 |  |  |  |  |  | -1.76 | Toxic | Toxic | Toxic | Toxic | Toxic | Toxic |  |  |  | 22.68 | 11.34 | 14.15 | 23 |  | Activity [23]: 0%
12 | CC1=C2[C@H]3OC(=O)[C@@H](C)[C@@H]3CC[C@@]2(C)C=CC1=O [SANTONIN] | -5.16 |  | -36.02 | -33.62 | -24.17 |  | Non-Toxic | Non-Toxic | Non-Toxic | Non-Toxic | Non-Toxic | Non-Toxic | 19 | 6.2 | Below limit of detection |  |  |  |  | 20.35 | Activity [21]: 4.48%
